Test results: patent publication US5461057A, “Hydro-ethano-indeno-pyridines” (priority 1994, dated 1995)

Legend:
metrazole = assay: Anti-metrazole test in mice; assay type: in vivo, mouse; settings: Mus musculus, read-out: MTZ ED50
Procedure: The anti-metrazole test in mice was carried out as described in Everett et al, J. Pharmacol. Exp. Therap. 81:402-407 (1944); which is hereby incorporated by reference.
(§1) The results for this test are given below as ED50's in the units of mg/kg.

TBZ-induced ptosis = assay: Effects on tetrabenazine (TBZ)-induced ptosis in mice; assay type: in vivo, mouse; settings: Mus musculus, po
Excerpt: Clinically active antidepressant drugs are known to block TBZ-induced ptosis in mice (See Psychosomatic Medicine, Nodine and Moyer, Eds. Lea and Febiger, Philadelphia, 1962, pp 683-90, which is hereby incorporated by reference). Activity in this test is used to predict anti-depressant activity in man.
The procedure for the TBZ-Induced Ptosis Test in Mice is set forth in Psychosomatic Medicine, Nodine and Moyer, Eds. Lea and Febiger, which is hereby incorporated by reference and in PCT/US91/06705, filed 20 Sep. 1991, which is mentioned above.
(§2) The results for this test are given below as ED50 's in the units of mg/kg.
TBZ refers to the test of effects on tetrabenazine induced ptosis in mice, p.o.;

[1] = system: LOX human melanoma cell adhesion to human fibronectin; assay: LOX melanoma cell adhesion to fibronectin; assay type: cell-based; settings: Homo sapiens, LOX; for inhibition at 10 µM: read-out: % Inhibition at 10 μM; for inhibition at 50 µM: read-out: % Inhibition at 50 μM; for IC50: Table 4, 1 hour adhesion, read-out: LOX FN IC50
Procedure: (§3) Adhesion assays were run essentially as described previously (Pai et al., J. Biomed. Res. 2: 53, 1992). 96-well plates were coated with human fibronectin (140 ng/well), human vitronectin (75 ng/well), human collagen I (100 ng/well), human collagen IV (100 ng/well), human fibrinogen (1 μg/well), murine laminin (600 ng/well), or polylysine, and incubated overnight in a humidified 37° C. incubator. Excess fibronectin or other substrate was then removed and 0.2 ml of 2 mg/ml bovine serum albumin (BSA)in Dulbecco's phosphate-buffered saline (DPBS) was added to each well, incubated for 2 hours at 37° C., and removed. LOX human melanoma cells, M27 murine lung carcinoma cells or B16F10 mouse melanoma cells were detached from tissue culture flasks with RPMI medium containing 0.2M urea and 10 mM EDTA, and 0.18 ml of cells were added to each well to a final cell concentration of 1×10^5 cells/well. For inhibition studies 20 μl of 10× compound was added to the wells prior to cell addition. Cells were allowed to adhere for 1 hour at 37° C. The wells were then gently washed twice with 0.2 ml DPBS. The fluorescent dye calcein AM (Molecular Probes, Eugene Oreg.) in DPBS (0.1 ml of 1 μM) was added to each well, and the plates were incubated for 1 hour at room temperature. Adherent cells were quantitated by reading the fluorescence on a Cytofluor 2300 fluorescent plate reader (Millipore) at 485 nm excitation and 530 nm emission.
LOX FN-IC50 value for inhibition of adhesion of LOX human melanoma cells to fibronectin coated on a plastic surface.

[2] = system: acetic acid-induced writhing; assay: Acetic Acid Writhing Test in Mice; assay type: in vivo, mouse; settings: Mus musculus, po, read-out: WRITH ED50
Excerpt: The blockade of writhing induced by the intraperitoneal injection of acetic acid is an established experimental animal model for the screening of antinociceptive drugs (drugs which prevent the appreciation or transmission of pain sensations).
The procedure for the Acetic Acid Writhing Test in Mice is set forth in Hendershot et al, J. Pharmacol. Exp. Therap. 125:237, (1959); Koster et al., Fed. Proc. 18:412, (1959); and international application PCT/US91/06705, filed 20 Sep. 1991, which are hereby incorporated by reference.
The results for this test are given below in the units of mg/kg which is also abbreviated in this specification as mpk. The results for this test are given as effective doses (ED50 's).

methamphetamine toxicity = assay: Methamphetamine toxicity test in mice; assay type: in vivo; settings: Mus musculus, read-out: METHA ED50
Procedure: The methamphetamine toxicity test in mice was carried out as described in Burn et al, Arch. Int. Pharmacodyn 113:290-295, (1958); and Coscia et al, Arzneim-Forsch (Drug Research) 25:1436-1442, (1975); which are hereby incorporated by reference.
as §1
METHA refers to the methamphetamine toxicity test in mice;

[3] = system: histamine-induced dyspnea; assay: Bronchodilator (in vivo) Guinea Pig Dyspnea; settings: oral; for responders at 50 mg/kg / responders at 100 mg/kg: Cavia porcellus, 1 h, read-out: DYSP survivors (converted)
Procedure: Unanesthetized guinea pigs (250-350 g), fasted overnight were placed in individual closed aerosol chambers which were connected to a Monoghan Ultrasonic nebulizer. The nebulizer can deliver an ultrasonic fog of uniform particles in a range of 1-8 microns. A 0.1% solution of histamine is aerosolized into the chambers causing the guinea pigs to develop dyspnea. The test drug was given orally one hour before the histamine challenge and the onset of dyspnea was recorded. Saline control animals developed dyspnea within 90-120 seconds of aerosol exposure. […] The data was expressed as the number tested over the number survived. The model was sensitive to bronchodilator and H1 antihistamine activity. Further information relating this test can be obtained from the following two publications which are hereby incorporated by reference: Dungan, K. W. and Lish, P. M. J Allergy 32:139-151 (1961). and Lish, P. M., Robbins, S. I. and Petres E. L. J. Pharmacol. Exp. Therap. 153 L 1538 (1966 ).

pulmonary resistance = assay: Pulmonary Resistance in the Anesthetized Rat; assay type: in vivo; settings: 0.5 mpk, i.v., mean of 5 animals, % decrease in pre-drug baseline resistance; for inhibition in vivo at 0.5 mg/kg: Rattus norvegicus, iv, read-out: Pulmonary Resistance in Rats, % Inhibition
Procedure: Rats (400-500 g) anesthetized with dialurethane were surgically prepared with tracheal and esophageal catheters. These catheters were connected to pressure transducers for recording of air flow, tracheal and esophageal pressures. These pressures formed the basis for measurement of pulmonary resistance. Inhibition of pulmonary resistance is a reflection of bronchodilation.
All compounds were tested i. v. in 5 separate animals. All data are expressed in % decrease in the pre-drug baseline resistance and each number given is the mean of the 5 animals tested.
The model is sensitive to bronchodilator activity.
Further information relating this test can be obtained from the following publications which are hereby incorporated by reference: Comroe et al, J. Appl. Physio. 4:439-44 (1959); Dungan et al J. Pharmacol. Exp. Therap. 164:290-301(1968); and Mead, J. et al. J. Appl. Physio. 5:779-796 (1953).

[4] = system: muricidal (mouse-killing) behavior; assay: Effects on muricidal behavior in rats; assay type: in vivo, rat; settings: Rattus norvegicus, read-out: MUR ED50
Excerpt: Blockade of muricidal (mouse-killing) behavior in rats is used as a measure of evaluating the anti-depressant activity of drugs, and the procedure for carrying out this test is set forth in Int. J. Neuro-pharmacal., 5, 405-411 (1966) are hereby incorporated by reference, and in PCT/US91/06705, filed 20 Sep. 1991, which is mentioned above.
as §2
MUR refers to the test on the effects on muricidal behavior in rats;

[5] = Calcein cytotoxicity assay; assay type: cell-based; settings: human, lox melanoma cells; 2 hours, calcein AM assay; read-out: 2 Hr Tox LD50
Procedure: LOX human melanoma cells were detached from tissue culture flasks with RPMI medium containing 0.2M urea and 10 mM EDTA, and 0.18 ml of cells were added to each well to a final cell concentration of 5×10^4 cells/well. 20 μl of 10× compound was added to the wells prior to cell addition. Cells were incubated with the compound at 37° C. for 1 hour or 5 hour as indicated. Calcein AM in DPBS (0.02 ml of 5 μM) was added to each well, and the plates were incubated for an additional 1 hour at room temperature. Viable cells were quantitated by reading the fluorescence on a Cytofluor 2300 fluorescent plate reader at 485 nm excitation and 530 nm emission.

[6] = system: LOX human melanoma cell adhesion to polylysine; assay: LOX melanoma cell adhesion to polylysine; assay type: cell-based; settings: read-out: Poly Lys IC50
Procedure: as §3

[7] = system: B16-F10 murine melanoma metastasis; assay: In vivo experimental metastasis; set-up: species or system mouse (C57/black6); settings: 250 mpk
Procedure: C57/black6 female mice (6-7 weeks old) were randomized before any treatment into groups of 5 mice per treatment. Compounds of the invention were prepared as a fine suspension in 25% β-cyclodextran and administered i.p. in a volume of 0.2 ml per animal. Two hours after drug (or vehicle) injection, 0.2 ml of DPBS containing 1×10^5 B-16 F10 murine melanoma cells were injected i.v. into the tail vein. After 14 days, animals were sacrificed and lungs were removed. Metastatic lung colonies were counted by visual inspection.
*Pretreatment Time is the time between i.p. drug injection and i.v. tumor

[8] = system: discrete trial avoidance behavior; assay: Conditioned avoidance suppression in rats; assay type: in vivo, rat; settings: Rattus norvegicus, read-out: CAR minimum effective dose (MED)
Excerpt: See Ann. N.Y. Acad. Sci. 66,740 (1957) which is hereby incorporated by reference. The procedure for carrying out this test is set forth in Int. J. Neuro-pharmacal., 5, 405-411 (1966) which is hereby incorporated by reference and in PCT/US91/06705, filed 20 Sep. 1991, which is mentioned above.
The results for this test are given below as minimum effecive doses (MED)in the units of mg/kg.
As used herein, CAR refers to the conditioned avoidance suppression test in rats;

[9] = 50 mg/kg, one hour before histamine challenge
[10] = 100 mg/kg, one hour before histamine challenge

Row | SMILES | ED50 (metrazole) | ED50 (TBZ-induced ptosis) | inhibition at 10 µM [1] | inhibition at 50 µM [1] | ED50 [2] | ED50 (methamphetamine toxicity) | ED50 [4] | CC50 at 2 h [5] | IC50 [1] | IC50 [6] | other results
1 | CN1C2CCC1C1c3ccccc3C(O)(c3ccccc3)C1C2 (stereo not drawn) [AAA] | > 30 mg/kg | > 30 mg/kg | 5.2% | 5.8% | > 30 mg/kg | > 30 mg/kg | > 10 mg/kg |  |  |  | responders at 50 mg/kg [3, 9]: 0%; inhibition in vivo at 0.5 mg/kg (pulmonary resistance): 35%
2 | COc1ccc(C2C3=C(c4ccccc42)C2CCC(C3)N2C)cc1OC (stereo not drawn) [AA] | > 30 mg/kg | > 30 mg/kg | -30% | 23.6% | 22.8 mg/kg | > 30 mg/kg | > 10 mg/kg |  |  |  | DYSP survivors [3, 10]: 0/3; Pulmonary Resistance in Rats, % Inhibition (pulmonary resistance): 6%
3 | COc1ccc(C2C3=C(c4ccccc42)C2CCC(C3)N2)cc1 (stereo not drawn) [Compound X] |  | 17.3 mg/kg | 20.8% | 99.7% | > 30 mg/kg | > 60 mg/kg | > 30 mg/kg | 67.7 µM | 15 µM | 121 µM | 
4 | O=P1(N(CCCl)CCCl)NCCCO1 (stereo not drawn) [Cytoxan, reference compound] |  |  |  |  |  |  |  |  |  |  | effectiveness as positive control [7]: showed similar effectiveness; % Inhibition of lung metastasis ([7]; pretreatment time 30 min): 77.8%; Number of Lung Melanoma Colonies ([7]; pretreatment time 30 min): 17.6 ± 4.2
5 | COc1ccc2c(c1)C(O)(c1ccccc1)C1CC3CCC(C21)N3C (stereo not drawn) [DDD] | > 30 mg/kg | > 30 mg/kg |  |  | > 30 mg/kg |  | 3.8 mg/kg |  |  |  | minimal effective dose [8]: > 25 mg/kg
6 | COc1ccc2c(c1)C(c1ccccc1)C1=C2C2CCC(C1)N2C (stereo not drawn) [EE] | > 30 mg/kg | > 30 mg/kg |  |  | > 30 mg/kg |  |  |  |  |  | minimal effective dose [8]: > 25 mg/kg
7 | CN1C2CCC1C1c3ccccc3C(c3ccccc3)C1C2 (stereo not drawn) [MM] |  | 9.3 mg/kg | -1.8% | 25.8% |  |  | > 10 mg/kg |  |  |  | responders at 50 mg/kg [3, 9]: 0%; responders at 100 mg/kg [3, 10]: 66.7%; inhibition in vivo at 0.5 mg/kg (pulmonary resistance): 9%
8 | c1ccc(C2=C3CC4CCC(N4)C3c3ccccc32)cc1 (stereo not drawn) [Q] | > 30 mg/kg | 3.6 mg/kg | 0.1% | 97.1% | > 30 mg/kg |  | > 10 mg/kg | 66.7 µM | 19.1 µM | 83.6 µM | DYSP survivors [3, 10]: 0/3; Pulmonary Resistance in Rats, % Inhibition (pulmonary resistance): 24%
9 | CN1C2CCC1C1c3ccccc3C(O)(c3ccc(F)cc3)C1C2 (stereo not drawn) [SS] | > 30 mg/kg | > 30 mg/kg | 10.1% | 17.3% | > 30 mg/kg | > 30 mg/kg | > 10 mg/kg | > 250 µM | > 50 µM | > 250 µM | responders at 50 mg/kg [3, 9]: 33.3%; responders at 100 mg/kg [3, 10]: 100%; inhibition in vivo at 0.5 mg/kg (pulmonary resistance): 22%
10 | CN1C2CCC1C1=C(C2)C(c2ccc(F)cc2)c2ccccc21 (stereo not drawn) [W] | > 30 mg/kg | > 30 mg/kg | 36.3% | 100% | 10.7 mg/kg | 8.9 mg/kg |  | 103 µM | 17.4 µM | 78.3 µM | DYSP survivors ([3]; 10 mg/kg, one hour before histamine challenge): 1/3; DYSP survivors ([3]; 20 mg/kg, one hour before histamine challenge): 2/3; DYSP survivors [3, 9]: 2/3; DYSP survivors [3, 10]: 3/3; Pulmonary Resistance in Rats, % Inhibition (pulmonary resistance): 21%
11 | COc1ccc(C2C3=C(c4ccccc42)C2CCC(C3)N2C)cc1 (stereo not drawn) [Y] |  | 0.35 mg/kg | -1.2% | 98.2% |  | > 30 mg/kg | > 20 mg/kg | 63.6 µM | 21.6 µM | 105 µM | DYSP survivors ([3]; dose not given): 2/3
